According to PubChem BioAssay (NCI):
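How tested: cells in 96-well plates exposed to compound for 48 hours at five concentrations. GI50 is the concentration that inhibits growth by half. TGI denotes the concentration required for complete inhibition of growth.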

Experiments:
Experiment in all cases: inhibition of tumour cell growth, NCI panel, 48 h
MOLT-4 leukemia = tested on: MOLT-4 leukemia
NCI-H23 lung = tested on: NCI-H23 lung
CAKI-1 renal = tested on: CAKI-1 renal
NCI-H522 lung = tested on: NCI-H522 lung
A498 renal = tested on: A498 renal
OVCAR-4 ovarian = tested on: OVCAR-4 ovarian
ACHN renal = tested on: ACHN renal
SK-OV-3 ovarian = tested on: SK-OV-3 ovarian
U251 CNS = tested on: U251 CNS
DU-145 prostate = tested on: DU-145 prostate

| Compound | TGI (MOLT-4 leukemia) [µM] | TGI (NCI-H23 lung) [µM] | TGI (CAKI-1 renal) [µM] | TGI (NCI-H522 lung) [µM] | TGI (A498 renal) [µM] | TGI (OVCAR-4 ovarian) [µM] | TGI (ACHN renal) [µM] | TGI (SK-OV-3 ovarian) [µM] | TGI (U251 CNS) [µM] | TGI (DU-145 prostate) [µM] | GI50 (MOLT-4 leukemia) [µM] | GI50 (DU-145 prostate) [µM] | GI50 (NCI-H23 lung) [µM] | GI50 (NCI-H522 lung) [µM] | GI50 (A498 renal) [µM] | GI50 (OVCAR-4 ovarian) [µM] | GI50 (ACHN renal) [µM] | GI50 (SK-OV-3 ovarian) [µM] | GI50 (U251 CNS) [µM] | GI50 (CAKI-1 renal) [µM] |
| --- | --- | --- | --- | --- | --- | --- | --- | --- | --- | --- | --- | --- | --- | --- | --- | --- | --- | --- | --- | --- |
| CC1(C)CCc2cc3c(cc2O1)OCCC3=O | > 100 | > 100 | > 100 | > 100 | > 100 | > 100 | > 100 | > 100 | > 100 |  |  |  |  |  |  |  |  |  |  |  |
| COc1ccccc1C(=O)c1ccc2ccccc2c1 | 34 | > 100 | 49.2 | 21.5 |  | > 100 | > 100 |  | > 100 | > 100 |  |  |  |  |  |  |  |  |  |  |
| O=C(c1ccccc1)[C@H]1Nc2cnccc2C2c3ccccc3CC21 (stereo partly drawn) | 23.1 | 30.6 | > 73.6 | 8.56 | 75.4 | > 76.9 | 37.1 | 44.8 | 48.8 |  |  |  |  |  |  |  |  |  |  |  |
| FC(F)(F)c1ccc2c(Nc3cccc(C4CC(c5ccccc5)=NN4c4ccc(Cl)cc4)c3)ccnc2c1 (stereo not drawn) | 19.5 | 25.3 |  | 38.6 | 45.6 | 28.9 | 11.1 | 36.4 | 14.4 | 15.4 | 3.6 | 3.61 | 4.22 | 6.16 | 9.9 | 4.99 | 2.9 | 11.2 | 3.24 |  |
| CC(=O)n1c(-c2ccc(Cl)cc2)nc2c(c1=O)C(c1ccc(Cl)cc1)c1sc3c(Cl)cccc3c1O2 (stereo not drawn) | 2.54 | 2.32 | 3.03 | 1.63 |  | 4.25 | 3.91 | 1.95 | 1.67 | 2.38 | 0.409 | 0.499 | 0.513 | 0.296 |  | 0.696 | 1 | 0.352 | 0.446 | 0.488 |
| CN(C)c1nc(-c2cccs2)n2nc(-c3ccc(Cl)cc3)cc2n1 | > 100 | > 100 |  | > 100 |  |  | > 100 |  |  | > 100 | > 100 | > 100 | 6.51 | > 100 |  |  | 3.97 |  |  |  |
| COc1ccc(C(=O)C(C(=O)CCC(=O)Nc2cccc(C(F)(F)F)c2)c2ccccc2)cc1 (stereo not drawn) | > 100 | > 100 | > 100 | > 100 | > 100 | > 100 | > 100 | > 100 | > 100 |  |  |  |  |  |  |  |  |  |  |  |
| COc1ccc(C2C(N)=NCC2c2ccccn2)cc1 (stereo not drawn) | > 100 | > 100 | > 100 | > 100 | > 100 | > 100 | > 100 | > 100 | > 100 |  |  |  |  |  |  |  |  |  |  |  |
| CCOC(=O)[C@@H](C)C[C@H](Cc1ccccc1)NC(=O)c1csc([C@@H](C[C@H](C(C)C)N(C)C(=O)[C@@H](NC(=O)[C@H]2CCCCN2C)C(C)(C)C)OC(C)=O)n1 | > 16.7 | > 16.7 | > 16.7 | 0.0644 | < 0.00167 | > 16.7 | > 16.7 | > 16.7 | > 16.7 |  | 0.00217 |  | < 0.00167 | < 0.00167 | < 0.00167 | 0.00328 | < 0.00167 | < 0.00167 | < 0.00167 | < 0.00167 |
| CC1CCCC(C(=O)/C(=C/c2cccc(Cl)c2)C(=O)C(=O)O)C1 (stereo not drawn) | 49.8 | > 100 | > 100 | 24.7 | > 100 | > 100 | > 100 | > 100 | 32.5 |  |  |  |  |  |  |  |  |  |  |  |
| COc1ccc(-c2cc(-c3cc(Cl)ccc3Cl)nc3nc(=S)[nH]c(N)c23)cc1 | > 100 | 48.4 | 62.1 | > 100 |  | > 100 | 98.4 | > 100 | 72.1 | > 100 | 6.36 | 48.8 | 22.1 | 28.2 |  | > 100 | 27.1 | 47.2 | 22.1 | 10.6 |
| c1ccc2c(c1)N=C(c1cccc3ccccc13)CC(c1cccc3ccccc13)S2 (stereo not drawn) | 5.15 | 12.5 | 13.2 | 8.44 | 20.8 | 12.4 | 23.5 | 29.8 | 6.08 |  |  |  |  |  |  |  |  |  |  |  |
| CC(=O)c1c(C)n([O-])c2cc(C)c(C)cc2[n+]1=O | > 100 | > 100 | > 100 | > 100 | > 100 | > 100 | > 100 | > 100 | > 100 |  |  |  |  |  |  |  |  |  |  |  |
